The text below walks through data of patent US20260356819A1, “OXOISOINDOLINYL-SUBSTITUTED […] DERIVATIVE AND USE THEREOF” (GLUETACS THERAPEUTICS (SHANGHAI) CO., LTD., priority 2023, published 2026).

Common to all, as to format: cell-based
Common to all, as to conditions: compounds at 50 nM and 500 nM

For one test, the target named is T1, IKZF3 (Homo sapiens, UniProt Q96SW2+Q9UKT9).
T1 construct: The supernatant was aspirated as the extracted total cell protein; endogenous in cells; host or cells: human peripheral blood mononuclear cells (hPBMCs)
T1 sequence (Q9UKT9 whole entry): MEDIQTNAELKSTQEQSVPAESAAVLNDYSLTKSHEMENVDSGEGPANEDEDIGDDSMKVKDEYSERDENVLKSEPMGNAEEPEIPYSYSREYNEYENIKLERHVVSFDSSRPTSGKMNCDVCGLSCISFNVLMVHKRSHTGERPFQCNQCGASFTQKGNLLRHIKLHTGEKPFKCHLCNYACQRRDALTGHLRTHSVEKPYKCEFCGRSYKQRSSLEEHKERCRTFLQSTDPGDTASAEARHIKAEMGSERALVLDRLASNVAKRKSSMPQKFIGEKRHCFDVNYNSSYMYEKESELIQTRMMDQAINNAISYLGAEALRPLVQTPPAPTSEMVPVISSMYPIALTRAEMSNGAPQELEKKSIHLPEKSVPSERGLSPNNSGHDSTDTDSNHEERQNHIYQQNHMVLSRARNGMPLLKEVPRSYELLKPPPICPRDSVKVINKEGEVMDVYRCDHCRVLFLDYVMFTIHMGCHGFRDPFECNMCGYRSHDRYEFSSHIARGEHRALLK
T1 sequence (Q96SW2 whole entry): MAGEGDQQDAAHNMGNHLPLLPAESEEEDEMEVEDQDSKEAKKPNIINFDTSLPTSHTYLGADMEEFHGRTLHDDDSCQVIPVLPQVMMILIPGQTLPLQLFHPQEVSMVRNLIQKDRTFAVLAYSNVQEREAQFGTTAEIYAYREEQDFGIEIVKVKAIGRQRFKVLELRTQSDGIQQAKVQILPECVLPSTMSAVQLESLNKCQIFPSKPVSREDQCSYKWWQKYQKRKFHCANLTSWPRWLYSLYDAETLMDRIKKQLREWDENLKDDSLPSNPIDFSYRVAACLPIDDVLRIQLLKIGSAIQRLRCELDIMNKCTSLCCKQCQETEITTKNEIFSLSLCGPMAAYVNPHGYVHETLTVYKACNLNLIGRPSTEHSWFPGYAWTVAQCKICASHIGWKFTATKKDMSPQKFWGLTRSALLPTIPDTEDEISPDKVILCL
T1 sequence (Q16531 whole entry partner): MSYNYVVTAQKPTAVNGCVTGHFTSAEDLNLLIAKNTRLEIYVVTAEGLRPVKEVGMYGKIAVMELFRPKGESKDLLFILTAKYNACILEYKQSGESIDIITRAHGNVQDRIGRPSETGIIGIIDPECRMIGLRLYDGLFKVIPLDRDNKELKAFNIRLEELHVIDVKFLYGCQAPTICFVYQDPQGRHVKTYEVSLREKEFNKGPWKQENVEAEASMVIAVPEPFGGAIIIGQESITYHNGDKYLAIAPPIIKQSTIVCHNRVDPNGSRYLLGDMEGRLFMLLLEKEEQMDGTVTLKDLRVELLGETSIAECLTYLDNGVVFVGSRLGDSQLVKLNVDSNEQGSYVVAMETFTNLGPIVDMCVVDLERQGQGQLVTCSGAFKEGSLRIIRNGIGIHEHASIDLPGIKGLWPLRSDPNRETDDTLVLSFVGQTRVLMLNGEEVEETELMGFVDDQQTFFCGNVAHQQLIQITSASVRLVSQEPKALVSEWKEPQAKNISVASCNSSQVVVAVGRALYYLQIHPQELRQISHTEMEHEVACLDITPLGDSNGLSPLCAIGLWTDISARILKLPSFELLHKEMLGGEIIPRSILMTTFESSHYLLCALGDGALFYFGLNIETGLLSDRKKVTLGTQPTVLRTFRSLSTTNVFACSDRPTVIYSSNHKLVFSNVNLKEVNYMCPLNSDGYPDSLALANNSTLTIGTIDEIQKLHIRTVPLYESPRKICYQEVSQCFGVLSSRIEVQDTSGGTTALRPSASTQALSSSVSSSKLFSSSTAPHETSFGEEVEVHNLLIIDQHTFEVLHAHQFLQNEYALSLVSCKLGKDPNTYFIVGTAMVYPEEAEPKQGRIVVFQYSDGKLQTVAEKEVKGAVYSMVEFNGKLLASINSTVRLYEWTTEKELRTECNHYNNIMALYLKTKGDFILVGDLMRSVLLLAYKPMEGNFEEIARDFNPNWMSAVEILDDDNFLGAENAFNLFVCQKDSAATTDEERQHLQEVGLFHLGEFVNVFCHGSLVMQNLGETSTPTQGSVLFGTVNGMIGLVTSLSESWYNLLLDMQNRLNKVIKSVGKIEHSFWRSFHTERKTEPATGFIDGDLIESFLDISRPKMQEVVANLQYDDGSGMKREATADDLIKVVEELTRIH
The test is described as follows: Western blot degradation of IKZF3 in hPBMCs (24 h). Put shortly:
(§1)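 Immunoblot densitometry quantifies target loss in hPBMCs after a 24 h compound exposure (50 nM, 500 nM). Percent remaining is normalised band intensity; DC50 is the concentration giving half the DMSO-control band grayscale.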
(In general: A western blot detects proteins with antibodies after separation by electrophoresis.)

Another test deals with T2, WEE1 (Homo sapiens, UniProt P30291+Q96SW2).
T2 construct: The supernatant was aspirated as the extracted total cell protein; endogenous in cells; host or cells: human peripheral blood mononuclear cells (hPBMCs)
T2 sequence (P30291 whole entry): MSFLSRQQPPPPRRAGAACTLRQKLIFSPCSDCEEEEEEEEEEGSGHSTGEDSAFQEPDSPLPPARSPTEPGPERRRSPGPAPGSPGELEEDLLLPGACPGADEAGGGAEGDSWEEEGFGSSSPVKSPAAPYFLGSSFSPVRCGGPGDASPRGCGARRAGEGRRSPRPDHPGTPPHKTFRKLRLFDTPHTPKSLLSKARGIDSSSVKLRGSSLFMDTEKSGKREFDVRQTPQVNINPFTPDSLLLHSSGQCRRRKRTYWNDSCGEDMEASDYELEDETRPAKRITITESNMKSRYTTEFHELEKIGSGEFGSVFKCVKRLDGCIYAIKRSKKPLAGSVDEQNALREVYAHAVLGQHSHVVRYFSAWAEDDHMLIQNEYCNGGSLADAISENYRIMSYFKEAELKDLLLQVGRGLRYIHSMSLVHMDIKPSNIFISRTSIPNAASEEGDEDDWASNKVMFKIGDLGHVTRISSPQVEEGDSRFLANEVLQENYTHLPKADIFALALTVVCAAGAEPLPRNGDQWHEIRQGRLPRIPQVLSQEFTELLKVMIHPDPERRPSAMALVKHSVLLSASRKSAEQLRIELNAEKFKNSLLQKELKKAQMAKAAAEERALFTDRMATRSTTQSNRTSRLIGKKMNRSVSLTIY
T2 sequence (Q96SW2 whole entry): as the sequence (Q96SW2 whole entry) above
T2 sequence (Q16531 whole entry partner): as the sequence (Q16531 whole entry partner) above
The test is described as follows: Western blot degradation of WEE1 in hPBMCs (24 h). Put shortly: as §1

In a further test the target is T3, IKZF2 (Homo sapiens, UniProt Q96SW2+Q9UKS7).
T3 construct: The supernatant was aspirated as the extracted total cell protein; endogenous in cells; host or cells: human peripheral blood mononuclear cells (hPBMCs)
T3 sequence (Q9UKS7 whole entry): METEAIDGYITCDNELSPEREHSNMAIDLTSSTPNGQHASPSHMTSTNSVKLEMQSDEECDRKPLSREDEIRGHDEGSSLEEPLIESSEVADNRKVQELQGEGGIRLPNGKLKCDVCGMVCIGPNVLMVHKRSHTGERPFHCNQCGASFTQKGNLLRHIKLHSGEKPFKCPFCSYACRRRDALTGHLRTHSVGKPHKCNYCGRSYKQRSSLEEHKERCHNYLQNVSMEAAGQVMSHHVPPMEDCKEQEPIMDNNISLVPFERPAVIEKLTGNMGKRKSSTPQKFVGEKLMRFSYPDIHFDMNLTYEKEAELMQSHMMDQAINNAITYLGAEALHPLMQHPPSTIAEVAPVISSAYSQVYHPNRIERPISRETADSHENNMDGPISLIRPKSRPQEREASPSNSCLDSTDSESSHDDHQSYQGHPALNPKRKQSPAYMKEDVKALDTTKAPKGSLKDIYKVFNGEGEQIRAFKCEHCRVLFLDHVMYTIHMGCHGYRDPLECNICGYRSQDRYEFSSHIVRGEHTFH
T3 sequence (Q96SW2 whole entry): as the sequence (Q96SW2 whole entry) above
T3 sequence (Q16531 whole entry partner): as the sequence (Q16531 whole entry partner) above
The test is described as follows: Western blot degradation of IKZF2 in hPBMCs (24 h). Put shortly:
as §1

For another test, the target named is T4, IKZF1 (Homo sapiens, UniProt Q13422+Q96SW2).
T4 construct: The supernatant was aspirated as the extracted total cell protein; endogenous in cells; host or cells: human peripheral blood mononuclear cells (hPBMCs)
Nature of the test: Western blot degradation of IKZF1 in hPBMCs (24 h). Put shortly: as §1

Another test has as its target T5, CK1α (Homo sapiens, UniProt P48729+Q96SW2).
T5 construct: The supernatant was aspirated as the extracted total cell protein; endogenous in cells; host or cells: human peripheral blood mononuclear cells (hPBMCs)
The test is described as follows: Western blot degradation of CK1α in hPBMCs (24 h). Put shortly: as §1

The next test has as its target T6, GSPT1 (Homo sapiens, UniProt P15170+Q96SW2).
T6 construct: The supernatant was aspirated as the extracted total cell protein; endogenous in cells; host or cells: human peripheral blood mononuclear cells (hPBMCs)
The test is described as follows: Western blot degradation of GSPT1 in hPBMCs (24 h). The essentials:
as §1

T6 sequence (P15170 whole entry): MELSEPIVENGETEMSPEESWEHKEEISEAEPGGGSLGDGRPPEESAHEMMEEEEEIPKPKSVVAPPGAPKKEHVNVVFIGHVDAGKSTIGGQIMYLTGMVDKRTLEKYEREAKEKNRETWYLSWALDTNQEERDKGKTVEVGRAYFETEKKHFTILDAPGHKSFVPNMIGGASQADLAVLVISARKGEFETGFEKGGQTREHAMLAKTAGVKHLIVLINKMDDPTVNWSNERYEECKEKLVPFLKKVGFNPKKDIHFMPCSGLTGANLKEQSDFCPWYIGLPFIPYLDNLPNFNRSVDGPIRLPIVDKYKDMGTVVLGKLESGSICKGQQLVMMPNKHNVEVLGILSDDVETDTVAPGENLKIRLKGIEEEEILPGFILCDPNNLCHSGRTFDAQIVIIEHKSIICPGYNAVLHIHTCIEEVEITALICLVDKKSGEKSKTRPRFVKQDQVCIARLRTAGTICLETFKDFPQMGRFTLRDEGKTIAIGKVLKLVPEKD
T6 sequence (Q96SW2 whole entry): as the sequence (Q96SW2 whole entry) above
T6 sequence (Q16531 whole entry partner): as the sequence (Q16531 whole entry partner) above
T5 sequence (P48729 whole entry): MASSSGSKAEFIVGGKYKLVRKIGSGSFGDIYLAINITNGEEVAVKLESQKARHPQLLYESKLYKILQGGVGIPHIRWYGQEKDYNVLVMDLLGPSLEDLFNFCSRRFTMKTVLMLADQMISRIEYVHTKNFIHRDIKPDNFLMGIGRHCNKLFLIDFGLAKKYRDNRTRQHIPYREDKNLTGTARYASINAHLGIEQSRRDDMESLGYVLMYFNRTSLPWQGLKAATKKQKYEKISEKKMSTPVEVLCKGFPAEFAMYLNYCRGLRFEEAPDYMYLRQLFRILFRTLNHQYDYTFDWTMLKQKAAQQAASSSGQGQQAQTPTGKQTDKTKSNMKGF
T5 sequence (Q96SW2 whole entry): as the sequence (Q96SW2 whole entry) above
T5 sequence (Q16531 whole entry partner): as the sequence (Q16531 whole entry partner) above

In the case of `O=C1CCN(N2C(=O)c3ccc(CN4CC=C(c5ncnc6sc7c(c56)CCC7)CC4)cc3C2=O)C(=O)N1` [GT-08434, 5-((4-(6,7-dihydro-5H-cyclopenta[4,5]thieno[2,3-d]pyrimidin-4-yl)-3,6-dihydropyridin-1(2H)-yl)methyl)-2-(2,4-dioxotetrahydropyrimidin-1(2H)-yl)isoindoline-1,3-dione], the “IKZF3 substrate protein remaining %” value at IKZF3 is listed as “A (0% ≤ substrate protein remaining % ≤80%)”. In addition, the “WEE1 substrate protein remaining %” value at WEE1 is listed as “B (80%< substrate protein remaining % ≤100%)”. Besides, the “IKZF2 substrate protein remaining %” value at IKZF2 is on record as “A (0% ≤ substrate protein remaining % ≤80%)”. On IKZF1, the “IKZF1 substrate protein remaining %” value is reported as “A (0% ≤ substrate protein remaining % ≤80%)”. In addition, the “CK1α substrate protein remaining %” value on CK1α is recorded as “A (0% ≤ substrate protein remaining % ≤80%)”. Besides, the “GSPT1 substrate protein remaining %” value at GSPT1 was “A (0% ≤ substrate protein remaining % ≤80%)”.

As for `Cc1nc(C2=CCN(Cc3ccc4c(c3)C(=O)N(N3CCC(=O)NC3=O)C4=O)CC2)c2c3c(sc2n1)CCC3` [GT-08435, 2-(2,4-dioxotetrahydropyrimidin-1(2H)-yl)-5-((4-(2-methyl-6,7-dihydro-5H-cyclopenta[4,5]thieno[2,3-d]pyrimidin-4-yl)-3,6-dihydropyridin-1(2H)-yl)methyl)isoindoline-1,3-dione], the “IKZF3 substrate protein remaining %” value at IKZF3 is recorded as “A (0% ≤ substrate protein remaining % ≤80%)”. The “WEE1 substrate protein remaining %” value at WEE1 was “A (0% ≤ substrate protein remaining % ≤80%)”. In addition, the “IKZF2 substrate protein remaining %” value on IKZF2 is on record as “B (80%< substrate protein remaining % ≤100%)”. The “IKZF1 substrate protein remaining %” value on IKZF1 was “A (0% ≤ substrate protein remaining % ≤80%)”. The “CK1α substrate protein remaining %” value on CK1α is “B (80%< substrate protein remaining % ≤100%)”. Also, the “GSPT1 substrate protein remaining %” value on GSPT1 was “A (0% ≤ substrate protein remaining % ≤80%)”.

On to `Cc1nc(C2=CCN(Cc3ccc4c(c3)CN(N3CCC(=O)NC3=O)C4=O)CC2)c2c3c(sc2n1)CCC3` [GT-08437, 1-(5-((4-(2-methyl-6,7-dihydro-5H-cyclopenta[4,5]thieno[2,3-d]pyrimidin-4-yl)-3,6-dihydropyridin-1(2H)-yl)methyl)-1-oxoisoindolin-2-yl)dihydropyrimidine-2,4(1H,3H)-dione], for which, at IKZF3, the “IKZF3 substrate protein remaining %” value was “A (0% ≤ substrate protein remaining % ≤80%)”. Besides, on WEE1, the “WEE1 substrate protein remaining %” value is “A (0% ≤ substrate protein remaining % ≤80%)”. At IKZF2, the “IKZF2 substrate protein remaining %” value is listed as “B (80%< substrate protein remaining % ≤100%)”. The “IKZF1 substrate protein remaining %” value at IKZF1 is on record as “A (0% ≤ substrate protein remaining % ≤80%)”. Further, on CK1α, the “CK1α substrate protein remaining %” value is recorded as “B (80%< substrate protein remaining % ≤100%)”. Further, the “GSPT1 substrate protein remaining %” value at GSPT1 is “A (0% ≤ substrate protein remaining % ≤80%)”.

Take `O=C1CCN(N2Cc3cc(CN4CC=C(c5ncc6ccsc6n5)CC4)ccc3C2=O)C(=O)N1` [GT-08438, 1-(1-oxo-5-((4-(thieno[2,3-d]pyrimidin-2-yl)-3,6-dihydropyridin-1(2H)-yl)methyl)isoindolin-2-yl)dihydropyrimidine-2,4(1H,3H)-dione]: the “IKZF3 substrate protein remaining %” value on IKZF3 is recorded as “A (0% ≤ substrate protein remaining % ≤80%)”. For the same compound, on WEE1, the “WEE1 substrate protein remaining %” value is reported as “A (0% ≤ substrate protein remaining % ≤80%)”. Further, the “IKZF2 substrate protein remaining %” value at IKZF2 is given as “B (80%< substrate protein remaining % ≤100%)”. Also, the “IKZF1 substrate protein remaining %” value at IKZF1 is given as “A (0% ≤ substrate protein remaining % ≤80%)”. Further, the “CK1α substrate protein remaining %” value at CK1α is recorded as “B (80%< substrate protein remaining % ≤100%)”. The “GSPT1 substrate protein remaining %” value at GSPT1 is reported as “A (0% ≤ substrate protein remaining % ≤80%)”.
